“Also recorded” adds a separate entry of the source.
Key:
Assay type in all cases: in vivo, rat
Wistar rats [1] = assay: OGTT in Wistar rats fed a high fat high sucrose diet; conditions: 8 weeks high fat high sucrose diet, rT3 2.5 μg/100 g, vs placebo
Description: A clinically relevant situation of a nutritionally-induced insulin resistance is known as a high fat high sucrose diet (HF). Therefore, the effects of rT3 on glucose and insulin response to an OGTT test were investigated. Wistar rats were fed a diet containing 45.5% fat (38% lard and 7.5% soy oil) and 34% carbohydrate (25% as sucrose) for 8 weeks. OGTT was performed as described above.

Wistar rats [2] = assay: Wistar rats treated with PTU and IOP (deiodinase inhibition, hypothyroid state) with or without rT3
Description: Thyroid Stimulating Hormone (TSH) and thyroxine (T4) were measured by radioimmunoassay with rat standards (RPA 554 Amersham bioscience, RIA FT4-immunotech, for TSH and T4 respectively).
In order to understand the mode of action of the treatments, Wistar rats were treated with pharmacological products that inhibit the synthesis and deiodination of thyroid hormones PTU and IOP.
Animals (Wistar) were submitted to a treatment by propyl-thiouracile (PTU in the drinking water) and iopanoic acid (IOP one sc-injection weekly) inducing a complete inhibition of all deiodinases (types I, II and III). Such treatment is responsible for the induction of a severe hypothyroid state. In addition this treatment impairs the peripheral metabolism of all thyroid hormones by deiodination. Some rats were also submitted to a sub-cutaneous administration of rT3 (2.5 μg/100 g). Three groups were constituted: controls, PTU+IOP and PTU+IOP+rT3 and duration of the experiment was 3 weeks.

ZDF rats [3] = assay: Indirect calorimetry (EE, RQ) of ZDF rats
Text: (§1) Energy expenditure as well as the nature of substrate oxidized (carbohydrates or lipids) were investigated by indirect calorimetry. This principle is based on the determinations of CO2 release (VCO2) and O2 consumption (VO2) by each animal. It assumes that O2 is entirely involved in substrate oxidation in the respiratory chain (leading to water production) while CO2 release is related to substrate decarboxylation (in the Krebs' cycle). These measurements allow assessing energy expenditure (EE) and respiratory quotient ([…], RQ). EE represent the absolute energy dissipation during rest and activity. RQ is a relative measurement indicating the ratio of carbohydrate versus lipid involved in oxidative pathway. A ratio of 1.0 indicates exclusive carbohydrate oxidation while a ratio of 0.7 indicates exclusive lipid oxidation. Each value between these two extreme values indicates the relative proportion of each substrate (of note protein oxidation was not evaluated). As an example, RQ approaches 0.7 during fasting, indicating lipid oxidation, conversely after feeding RQ increases close to 1 indicating carbohydrate oxidation resulting from food intake and blood insulin rise. Likewise, animals fed high-carbohydrate diets have higher RQs than those fed high-fat diets.
(§2) The indirect calorimetry system (Panlab, Barcelona, Spain) consists of cages, pumps, flow controllers, valves, and analyzers. It is computer-controlled in order to sequentially measure O2 and CO2 concentrations as well as air flow in four separate cages allowing four simultaneous determinations. Rats are isolated in one of the four metabolic chambers, and room air is used as a reference to monitor ambient O2 and CO2 concentrations periodically.
(§3) At predefined intervals, the computer sends a signal to store differential CO2 and O2 concentrations, flow rate, allowing computing VCO2, VO2, RQ, and EE (Weir equation) with data acquisition hardware (Metabolism, Panlab, Barcelona, Spain).

Wistar rats [4] = assay: Growth rate (body weight) and food intake of Wistar rats; conditions: ultra low dose 0.25 μg/100 g BW, vs placebo
Wistar rats [5] = assay: Indirect calorimetry (energy expenditure, respiratory quotient) of Wistar rats; conditions: for Energy expenditure and respiratory quotient (metabolic activity): 2.5 μg/100 g continuous, 21 days; for Energy expenditure (EE, metabolism): 25 μg/100 g BW
Text: as §1, §2, §3

[6] = tested on: mitochondrial glycerol 3-phosphate dehydrogenase (mGPdH); assay: Mitochondrial glycerol 3-phosphate dehydrogenase (mGPdH) activity in liver mitochondria of treated rats; conditions: Wistar rats; for Mitochondrial GPdH activity: 2.5 μg/100 g continuous, 21 days
Description: Mitochondrial glycerol 3-phosphate dehydrogenase (mGPdH) activity was measured on the supernatant of isolated mitochondria after three cycles of freezing-thawing. Forty μg of mitochondria were incubated in a KH2PO4/K2HPO4 buffer (50 mM, pH 7.5) containing 9.3 μM of antimycin A, 5 μM of rotenone and decylubiquinone (50 μM). The reduction of 50 μM dichloro-indophenol (DCIP) by mGPDH was measured spectrophotometrically at 600 nm at 37° C. and enzymatic activity was expressed as μmol·min^−1·mg prot^−1.

ZDF rats [7] = assay: Glycaemia, insulinaemia and pancreas mass in ZDF diabetic rats
Description: Rats were genetically obese normoglycemic (Zucker or Fa/Fa), 10-11 week-old diabetic rats (ZDF), genetic non-overweight diabetic (type 2 diabetes) rats (Goto-Kakizaki (GK) model), non-overweight diabetic (type 2 diabetes) rats n0STZ model or normal Wistar rats submitted to an 8-week high-fat high sucrose diet (a model of nutritional induction of insulin resistance).
The day of the study, after a fasted period overnight (18 h), blood samplings will be taken in awaked rats from the tail vein.
Insulin levels were determined with commercial kits (Linco Research).
Glucose and 3-hydroxybutyrate (3-HB) were measured enzymatically and non esterified fatty acid (NEFA) by colorimetric assay (Wako Chemicals).
ZDF diabetic rats are a good model for studying the anti-diabetic treatments, since these animals develop a major hyperglycaemia during their life due to the combination of moderate obesity and pancreas degeneracy. To date, treatments are ineffective when the hyperglycaemia is established.
Then ZDF rats were treated with low doses of rT3 for 21 days (2.5 μg/100 g BW/day) and the glycaemia, insulinaemia were measured after 8, 16 and 21 days.

[8] = PTU+IOP alone vs placebo, or rT3 2.5 μg/100 g added to PTU+IOP
[9] = PTU+IOP alone, or rT3 (2.5 μg/100 g) added to PTU+IOP
[10] = 25 μg/100 g BW pellet, vs placebo

## N[C@@H](Cc1ccc(Oc2cc(I)c(O)c(I)c2)c(I)c1)C(=O)O [rT3, 3′,5′,3-triiodothyronine]
Wistar rats [1]
  Blood glucose, area under the curve (AUC) after OGTT: significant lowering
  Blood glucose, change over time of plasma concentration after OGTT: significant lowering
  Insulin levels, AUC after OGTT: significantly lower
  Insulin levels, changes over time after OGTT: significantly lower
Wistar rats [2]; 3 weeks, PTU+IOP alone vs controls, or rT3 2.5 μg/100 g sc added to PTU+IOP
  Animal mass (body weight): enhances the decrease induced by PTU-IOP
Wistar rats [2]; 3 weeks, PTU-IOP with or without rT3 2.5 μg/100 g
  Appetite (food intake): remains unchanged
Wistar rats [2]; [8]
  Energy expenditure (EE): enhanced
  Respiratory quotient (RQ): enhanced
Wistar rats [2]; [9]
  Activity of mGPdH: stimulates
  Brown adipose tissue mass: also enhanced
  Mitochondrial state 3 respiratory rate with GM, S and GMS: corrected the effect of PTU+IOP
ZDF rats [3]; 2.5 μg/100 g BW, vs placebo
  Energy expenditure: enhanced
  Respiratory quotient (RQ): enhanced
ZDF rats [3]; low dose of rT3
  Energy expenditure, enhancement: +50%
Wistar rats [4]
  Body weight: also reduce the body weight
Wistar rats [5]; intra-peritoneal pump
  Energy expenditure and respiratory quotient (metabolic activity): increase of the metabolic activity
Wistar rats [5]; sub-cutaneous pump
  Energy expenditure and respiratory quotient (metabolic activity): increase of the metabolic activity
Wistar rats [5]; [10]
  Respiratory quotient (RQ) during the day (diurnal period): almost identical to placebo
  Respiratory quotient (RQ) during the night: higher
Wistar rats [5]; daily intra-peritoneal injection
  Energy expenditure (EE, metabolism): do no modify the metabolism
Wistar rats [5]; daily per os
  Energy expenditure (EE, metabolism): do no modify the metabolism
Wistar rats [5]; daily sub-cutaneous injection
  Energy expenditure (EE, metabolism): do no modify the metabolism
Wistar rats [5]; 25 μg/100 g BW/day, continuous subcutaneous pellet, 24 h calorimetry
  Energy expenditure (EE, metabolic expenses): enhanced metabolic expanses
Wistar rats [5]; 25 μg/100 g BW/day, continuous subcutaneous pellet, after 900 min
  Respiratory quotient (RQ): significant difference from the placebo treated animals
Wistar rats [5]; high dose 25 μg/100 g BW
  Energy expenditure (EE): significantly enhance
Wistar rats [5]; high dose 25 μg/100 g BW, vs placebo
  Respiratory quotient (RQ): increase
Wistar rats [5]; low dose 2.5 μg/100 g BW, vs placebo
  Respiratory quotient (RQ): increase
Wistar rats [5]; ultra low dose 0.25 μg/100 g BW, vs placebo
  Respiratory quotient (RQ): decrease
[6]; liver mitochondria, high dose 25 μg/100 g
  Enzymatic activity of mitochondrial glycerol-3-phosphate dehydrogenase: significantly increased
[6]; liver mitochondria, low dose 2.5 μg/100 g, sub-cutaneous pellet
  Enzymatic activity of mitochondrial glycerol-3-phosphate dehydrogenase (mGPdH): significantly increased; also recorded: more enhanced
[6]; intra-peritoneal pump
  Mitochondrial GPdH activity: enhanced
[6]; sub-cutaneous pump
  Mitochondrial GPdH activity: enhanced
ZDF rats [7]; 2.5 μg/100 g BW/day, up to 21 days, placebo progressively decreases
  Insulin level (blood insulin concentration): maintained; also recorded: increasing plasmatic insulin concentration
ZDF rats [7]; 2.5 μg/100 g BW/day, vs placebo
  Pancreas mass: increased
ZDF rats [7]; low dose 2.5 μg/100 g BW/day, 8, 16 and 21 days, vs placebo
  Glycaemia (blood glucose concentration): large reduction; also recorded: decreasing glucose concentration

From patent US20110064773A1, “PHARMACEUTICAL COMPOSITIONS COMPRISING A THYROID HORMON AND THEIR THERAPEUTIC USE” (UNIVERSITE JOSEPH FOURIER, priority 2007, published 2011)
